Assay results from patent publication US11807634B2, “Cyclopropyl dihydroquinoline sulfonamide compounds” (AMGEN INC., priority 2020, dated 2023).

Legend:
[1] = molecular target: T1, Human NaV1.7 (Homo sapiens, UniProt Q15858); assay: Ionworks Barracuda (IWB) automated patch clamp assay; format: cell-based; details: human NaV1.7 currents in HEK cells, population patch clamp, state- and use-dependent voltage protocol; read-out: hNaV1.7 IWB-U IC50
T1 construct: expressed in transfected cells; host or cells: Spiking HEK cells (without Kir2.1 transfection)
Description: Ionworks Barracuda (IWB) Automated Patch Clamp Assay (Same Protocol for Both Hu Man and Mouse)
Human NaV1.7 currents were recorded in population patch-clamp mode with the IWB automated electrophysiology system (Molecular Devices, LLC, Sunnyvale, Calif.). Spiking HEK cells (without Kir2.1 transfection) were cultured and prepared for recordings as previously described for IonWorks Quattro testing^1. The external solution consisted of the following (in mM): NaCl 140, KCl 5, CaCl2 2, MgCl2 1, HEPES 10, and glucose 11, pH 7.4, with N-methyl-D-glucamine at 320 mOsmol. […] From a holding potential of −110 mV, currents were elicited by a train of 26 depolarizations of 150 ms duration to −20 mV at a frequency of 5 Hz. Cells were then clamped to −20 mV for a period of 4 minutes in the presence of a single concentration of test compound. Following this compound incubation period, cells were clamped to −110 mV for three seconds to recover unbound channels and put through the same 26 pulse voltage protocol as above. Peak inward current during the 26th pulse to −20 mV in the presence of compound was divided by the peak inward current evoked by the 26th pulse to −20 mV in the absence of compound to determine percent inhibition. Concentration-response curves of percent inhibition as a function of concentration were generated to calculate IC50 values as described in Kornecook, T. J.; Yin, R.; Altmann, S.; et al. Pharmacologic Characterization of AMG8379, a Potent and Selective Small Molecule Sulfonamide Antagonist of the Voltage-Gated Sodium Channel NaV1. 7.
The potency of the compounds of the present invention were evaluated on human NaV1.7 channels using the above described IonWorks Barracuda automated electrophysiology platform that evaluates the ability of compounds to block sodium conductance through NaV1.7 channels. A voltage-protocol that prosecutes both state-dependent as well as use-dependent inhibition was used as these modes of action are thought to be more relevant for the native state of NaV1.7 channels in pain sensing neurons in vivo.

[2] = tested on: CYP3A4; assay: Human CYP 3A4 induction assay (mRNA, cryopreserved human hepatocytes); format: in vitro ADME
Description: Human CYP 3A4 Induction Assay
Cryopreserved human hepatocytes were seeded in 96-well collagen coated plates at 70,000 cells per well in hepatocyte plating media (HPM, final concentrations: 1× Dulbecco's Modified Eagle's Medium, 0.1 μM dexamethasone, 10% fetal bovine serum, 1× ITS, 1×PSG) followed by incubation at 37° C. under 5% CO2 and 90% relative humidity for 2 days to allow hepatocytes to form a confluent layer. On Day 3, hepatocytes were treated with either test compound or rifampin (20 μM, positive control for CYP3A induction) prepared in hepatocyte incubation media ((HIM, final concentrations: 1× William's Medium E, 0.1 μM dexamethasone, 1×ITS, 1×PSG). Treatment was performed for 72 hours with either 2 concentrations (2 μM or 10 μM) or a range of concentrations (0.001 μM to 100 μM) of the test compound to obtain full dose-response curve. Fresh media containing the relevant concentrations of the test compound was replaced every day until the samples were processed. After 72 hours of incubation, samples were processed for mRNA analysis using bDNA technology using manufacturer's instructions (Affymetrix, Fremont, Calif.). Cell viability was tested at the end of the experiment using MTT assay kit (Roche Diagnostics, Basel, Switzerland). Data was analyzed and presented as percent of control (POC) and Emax and EC50 obtained when appropriate according to guidance from Center for Drug Evaluation and Research (CDER), 2006, Guidance for Industry, Drug Interaction Studies—Study Design, Data Analysis, and Implications for Dosing and Labeling.
Cryopreserved human hepatocytes were seeded in 96-well collagen coated plates at 70,000 cells per well in hepatocyte plating media (HPM, final concentrations: 1× Dulbecco's Modified Eagle's Medium, 0.1 μM dexamethasone, 10% fetal bovine serum, 1×ITS, 1×PSG) followed by incubation at 37° C. under 5% CO2 and 90% relative humidity for 2 days to allow hepatocytes to form a confluent layer. On Day 3, hepatocytes were treated with either test compound or rifampin (20 μM, positive control for CYP3A induction) prepared in hepatocyte incubation media ((HIM, final concentrations: 1× William's Medium E, 0.1 μM dexamethasone, 1×ITS, 1×PSG). Treatment was performed for 72 hours with either 2 concentrations (2 μM or 10 μM) or a range of concentrations (0.001 μM to 100 μM) of the test compound to obtain full dose-response curve. Fresh media containing the relevant concentrations of the test compound was replaced every day until the samples were processed. After 72 hours of incubation, samples were processed for mRNA analysis using bDNA technology using manufacturer's instructions (Affymetrix, Fremont, Calif.). Cell viability was tested at the end of the experiment using MTT assay kit (Roche Diagnostics, Basel, Switzerland). Data was analyzed and presented as percent of control (POC) and Emax and EC50 obtained when appropriate, as described in Halladay, J. et al, 2012, An “all-inclusive” 96-well cytochrome P450 induction method: Measuring enzyme activity, mRNA levels, protein levels, and cytotoxicity from one well using cryopreserved human hepatocytes, Pharmacological and Toxicological Methods, 66:270-275.
The cytochrome P450 (CYP) is a well-known superfamily of enzymes that are responsible for the oxidative and reductive metabolic transformation of medications used in clinical practice. In addition, the CYP enzymes are commonly associated with causing many clinically relevant drug-drug interactions. Of the CYP enzymes, CYP3A4 is not only the most prevalent CYP enzyme in the liver and intestine, but is responsible for metabolism and elimination of approximately 50% of marketed drugs. In addition, CYP3A4 activity can be induced (or increased) or inhibited (decreased) in response to administration of certain drugs, thereby affecting concentrations of their own or certain concomitant drugs present in the body. […]

[3] = human hepatocytes, 10 uM test compound, 72 hours, mRNA, percent of control (rifampin positive control)

T1 sequence (Q15858 whole entry): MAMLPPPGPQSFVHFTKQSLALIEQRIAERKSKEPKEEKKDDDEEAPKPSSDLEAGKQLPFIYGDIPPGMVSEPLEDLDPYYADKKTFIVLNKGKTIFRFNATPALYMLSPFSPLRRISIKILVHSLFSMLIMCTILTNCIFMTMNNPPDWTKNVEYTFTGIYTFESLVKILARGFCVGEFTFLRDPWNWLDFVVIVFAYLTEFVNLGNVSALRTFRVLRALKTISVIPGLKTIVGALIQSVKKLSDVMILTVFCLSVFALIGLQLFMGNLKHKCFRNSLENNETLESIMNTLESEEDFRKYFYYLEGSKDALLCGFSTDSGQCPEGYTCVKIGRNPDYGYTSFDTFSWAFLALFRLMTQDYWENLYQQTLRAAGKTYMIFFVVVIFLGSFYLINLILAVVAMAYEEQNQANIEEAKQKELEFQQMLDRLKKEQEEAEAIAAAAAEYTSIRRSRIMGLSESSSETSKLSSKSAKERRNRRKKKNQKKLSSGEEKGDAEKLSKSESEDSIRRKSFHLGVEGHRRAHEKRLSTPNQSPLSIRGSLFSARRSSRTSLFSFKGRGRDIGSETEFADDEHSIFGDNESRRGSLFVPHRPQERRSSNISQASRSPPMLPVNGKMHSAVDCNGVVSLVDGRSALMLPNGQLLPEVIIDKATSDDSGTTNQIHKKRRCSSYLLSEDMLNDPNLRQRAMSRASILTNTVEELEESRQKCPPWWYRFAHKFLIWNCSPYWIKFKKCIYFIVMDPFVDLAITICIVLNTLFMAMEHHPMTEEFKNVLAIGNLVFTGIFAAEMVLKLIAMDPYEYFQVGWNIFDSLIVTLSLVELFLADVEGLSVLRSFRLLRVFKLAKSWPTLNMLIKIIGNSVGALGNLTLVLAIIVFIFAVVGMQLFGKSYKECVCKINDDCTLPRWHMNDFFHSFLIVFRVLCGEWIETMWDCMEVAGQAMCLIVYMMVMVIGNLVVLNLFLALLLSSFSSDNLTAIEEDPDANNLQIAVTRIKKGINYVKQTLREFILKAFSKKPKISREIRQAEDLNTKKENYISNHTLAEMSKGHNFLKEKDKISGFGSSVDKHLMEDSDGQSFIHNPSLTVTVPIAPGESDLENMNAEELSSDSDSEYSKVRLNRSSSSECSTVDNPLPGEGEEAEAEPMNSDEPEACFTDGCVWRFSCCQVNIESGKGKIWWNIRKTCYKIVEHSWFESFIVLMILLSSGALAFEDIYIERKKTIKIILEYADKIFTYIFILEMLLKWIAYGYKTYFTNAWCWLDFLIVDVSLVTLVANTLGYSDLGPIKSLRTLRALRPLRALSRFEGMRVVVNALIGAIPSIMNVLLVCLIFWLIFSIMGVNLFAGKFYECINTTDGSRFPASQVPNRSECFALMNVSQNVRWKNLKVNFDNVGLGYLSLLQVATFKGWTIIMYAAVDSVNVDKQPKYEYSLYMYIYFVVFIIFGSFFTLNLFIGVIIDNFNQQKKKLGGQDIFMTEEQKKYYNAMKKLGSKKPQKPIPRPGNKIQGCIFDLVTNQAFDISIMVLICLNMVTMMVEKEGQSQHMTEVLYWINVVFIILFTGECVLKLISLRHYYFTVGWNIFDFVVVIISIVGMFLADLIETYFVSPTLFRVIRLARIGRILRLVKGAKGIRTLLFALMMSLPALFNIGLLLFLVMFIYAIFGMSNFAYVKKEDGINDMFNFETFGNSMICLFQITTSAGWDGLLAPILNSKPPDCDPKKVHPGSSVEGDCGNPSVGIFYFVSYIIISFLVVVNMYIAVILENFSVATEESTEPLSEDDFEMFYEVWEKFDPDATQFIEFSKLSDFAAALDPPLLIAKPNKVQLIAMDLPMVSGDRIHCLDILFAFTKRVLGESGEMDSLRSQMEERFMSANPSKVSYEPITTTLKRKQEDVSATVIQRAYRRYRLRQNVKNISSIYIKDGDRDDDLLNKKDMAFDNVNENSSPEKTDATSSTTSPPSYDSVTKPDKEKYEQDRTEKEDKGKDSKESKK

SMILES | IC50 [1] | CYP3A4 mRNA Induct Hu 10 uM POC [2, 3] | CYP3A4 mRNA Induct Hu 10 uM POC ([2]; hepatocytes)
COc1cc([C@@H]2C[C@H]2C(F)(F)F)c(Cl)cc1-n1c(=O)ccc2cc(S(=O)(=O)Nc3cccnn3)ccc21 (atropisomer, axis not shown; (P)) [Example 14, (P)-1-(5-chloro-2-methoxy-4-((1R,2R)-2-(trifluoromethyl)cyclopropyl)phenyl)-2-oxo-N-(pyridazin-3-yl)-1,2-dihydroquinoline-6-sulfonamide] | 19 nM | 46.59% | –
COc1cc([C@@H]2C[C@H]2C(F)(F)F)c(C)cc1-n1c(=O)ccc2cc(S(=O)(=O)Nc3ccon3)ccc21 (atropisomer, axis not shown; (P)) [Example 26, (P)-N-(isoxazol-3-yl)-1-(2-methoxy-5-methyl-4-((1R,2R)-2-(trifluoromethyl)cyclopropyl)phenyl)-2-oxo-1,2-dihydroquinoline-6-sulfonamide] | 19 nM | 35.39% | –
COc1cc([C@H]2C[C@H]2C2CC2)c(F)cc1-n1c(=O)ccc2cc(S(=O)(=O)Nc3ccon3)ccc21 (atropisomer, axis not shown; (P)) [Example 30, (P)-1-(4-((1S,2S)-[1,1′-bi(cyclopropan)]-2-yl)-5-fluoro-2-methoxyphenyl)-N-(isoxazol-3-yl)-2-oxo-1,2-dihydroquinoline-6-sulfonamide] | 26 nM | – | 60.34%
COc1cc([C@@H]2C[C@H]2COC(F)(F)F)c(F)cc1-n1c(=O)ccc2cc(S(=O)(=O)Nc3ccon3)ccc21 (atropisomer, axis not shown; (P)) [Example 32, (P)-1-(5-fluoro-2-methoxy-4-((1R,2R)-2-((trifluoromethoxy)methyl)cyclopropyl)phenyl)-N-(isoxazol-3-yl)-2-oxo-1,2-dihydroquinoline-6-sulfonamide] | 9 nM | 64.54% | –
COc1cc([C@H]2C[C@@H]2COC(F)(F)F)c(F)cc1-n1c(=O)ccc2cc(S(=O)(=O)Nc3ccon3)ccc21 (atropisomer, axis not shown; (P)) [Example 33, (P)-1-(5-fluoro-2-methoxy-4-((1S,2S)-2-((trifluoromethoxy)methyl)cyclopropyl)phenyl)-N-(isoxazol-3-yl)-2-oxo-1,2-dihydroquinoline-6-sulfonamide] | 4 nM | 139.9% | –
COc1cc([C@@H]2C[C@H]2C(F)(F)F)c(F)cc1-n1c(=O)ccc2cc(S(=O)(=O)Nc3nncs3)ccc21 (atropisomer, axis not shown; (P)) [Example 40, (P)-1-(5-fluoro-2-methoxy-4-((1R,2R)-2-(trifluoromethyl)cyclopropyl)phenyl)-2-oxo-N-(1,3,4-thiadiazol-2-yl)-1,2-dihydroquinoline-6-sulfonamide] | 8 nM | – | –
COc1cc([C@@H]2C[C@H]2C(F)(F)F)c(F)cc1-n1c(=O)ccc2cc(S(=O)(=O)Nc3ccon3)c(F)cc21 (single isomer, unassigned) [Example 45] | 8 nM | 24.57% | –
